The source of these data is patent US20170275275A1, “BENZENESULFONAMIDES USEFUL AS SODIUM CHANNEL INHIBITORS” (PFIZER INC., priority 2014, published 2017).

Counter-ions that a name gives are not always drawn. Some results are limits rather than exact numbers.

What is called inhibition is the percentage by which the read-out fell short of the control.

In one assay the target is T1, Nav1.7 (or SCN9A) channel (Homo sapiens, UniProt Q15858).
T1 construct: expressed in transfected cells
T1 sequence (Q15858 whole entry): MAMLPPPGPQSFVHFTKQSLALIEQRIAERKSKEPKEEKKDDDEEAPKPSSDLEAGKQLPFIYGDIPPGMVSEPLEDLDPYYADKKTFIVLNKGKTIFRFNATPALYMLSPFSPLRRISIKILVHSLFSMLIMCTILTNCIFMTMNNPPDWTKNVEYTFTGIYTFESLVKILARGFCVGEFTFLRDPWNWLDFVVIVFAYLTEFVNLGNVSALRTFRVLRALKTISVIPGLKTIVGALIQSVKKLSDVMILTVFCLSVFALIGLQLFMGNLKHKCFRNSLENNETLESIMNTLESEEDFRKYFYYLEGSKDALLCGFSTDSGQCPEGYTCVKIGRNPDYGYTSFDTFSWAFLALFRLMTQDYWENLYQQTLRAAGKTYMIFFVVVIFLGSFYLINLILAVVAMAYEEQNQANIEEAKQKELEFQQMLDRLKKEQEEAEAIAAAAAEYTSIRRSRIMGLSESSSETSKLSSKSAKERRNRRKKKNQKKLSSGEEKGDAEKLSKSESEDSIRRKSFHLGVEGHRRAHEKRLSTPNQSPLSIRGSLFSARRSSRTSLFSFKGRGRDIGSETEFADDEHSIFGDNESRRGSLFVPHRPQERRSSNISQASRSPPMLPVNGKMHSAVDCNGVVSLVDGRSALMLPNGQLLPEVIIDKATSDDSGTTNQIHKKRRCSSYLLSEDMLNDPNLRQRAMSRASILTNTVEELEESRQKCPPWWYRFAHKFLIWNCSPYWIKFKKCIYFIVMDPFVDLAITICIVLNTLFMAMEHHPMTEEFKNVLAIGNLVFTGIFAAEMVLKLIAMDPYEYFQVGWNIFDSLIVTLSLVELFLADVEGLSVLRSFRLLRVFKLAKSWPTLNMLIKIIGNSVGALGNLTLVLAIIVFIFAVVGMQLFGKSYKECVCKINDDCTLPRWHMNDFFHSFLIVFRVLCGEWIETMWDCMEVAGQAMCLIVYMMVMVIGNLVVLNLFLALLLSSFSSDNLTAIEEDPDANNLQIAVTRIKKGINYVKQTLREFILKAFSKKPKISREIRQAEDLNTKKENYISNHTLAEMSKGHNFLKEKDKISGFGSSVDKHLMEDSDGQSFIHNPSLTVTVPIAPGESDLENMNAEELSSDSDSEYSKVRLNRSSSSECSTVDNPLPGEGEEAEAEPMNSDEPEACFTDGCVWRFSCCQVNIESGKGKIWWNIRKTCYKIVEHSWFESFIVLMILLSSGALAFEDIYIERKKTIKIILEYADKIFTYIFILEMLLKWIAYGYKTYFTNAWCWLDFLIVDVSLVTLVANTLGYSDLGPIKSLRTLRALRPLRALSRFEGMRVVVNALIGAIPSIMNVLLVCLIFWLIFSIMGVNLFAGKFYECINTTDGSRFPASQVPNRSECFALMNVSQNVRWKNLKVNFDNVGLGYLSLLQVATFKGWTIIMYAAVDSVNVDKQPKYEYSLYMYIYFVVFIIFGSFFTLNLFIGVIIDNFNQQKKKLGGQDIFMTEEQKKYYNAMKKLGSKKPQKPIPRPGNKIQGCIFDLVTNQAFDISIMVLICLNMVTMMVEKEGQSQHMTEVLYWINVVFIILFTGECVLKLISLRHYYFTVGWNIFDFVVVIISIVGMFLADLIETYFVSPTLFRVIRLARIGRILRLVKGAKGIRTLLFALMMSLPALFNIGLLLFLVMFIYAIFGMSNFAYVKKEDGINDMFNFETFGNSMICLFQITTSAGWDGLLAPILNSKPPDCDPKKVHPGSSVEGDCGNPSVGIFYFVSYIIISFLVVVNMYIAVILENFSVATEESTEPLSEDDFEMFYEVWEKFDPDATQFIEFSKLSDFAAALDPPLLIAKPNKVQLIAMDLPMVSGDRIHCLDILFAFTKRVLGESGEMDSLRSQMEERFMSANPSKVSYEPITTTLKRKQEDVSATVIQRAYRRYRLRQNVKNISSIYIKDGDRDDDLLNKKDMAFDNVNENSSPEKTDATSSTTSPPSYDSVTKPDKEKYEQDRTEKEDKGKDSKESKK
As to the kind of experiment: Nav1.7 (hSCN9A) channel block, PatchXpress (PX) whole-cell electrophysiology in stably transfected HEK cells. Conditions: HEK293; Nav1.7, PatchXpress, 30 nM; read-out: % inhibition at 30 nM dose. It counts as cell-based. The method, then:
The ability of the compounds of formula (I) to block the Nav1.7 (or SCN9A) channel was measured using the assay described below.
Human Embryonic Kidney (HEK) cells were transfected with an hSCN9A construct using lipofectamine reagent (Invitrogen), using standard techniques. Cells stably expressing the hSCN9A constructs were identified by their resistance to G-418 (400 μg/ml). Clones were screened for expression using the whole-cell voltage-clamp technique.
HEK cells stably transfected with hSCN9A were maintained in DMEM medium supplemented with 10% heat-inactivated fetal bovine serum and 400 μg/ml G-418 in an incubator at 37° C. with a humidified atmosphere of 10% CO2. For HTS, cells were harvested from flasks by trypsinization and replated in an appropriate multi-well plate (typically 96 or 384 wells/plate) such that confluence would be achieved within 24 hours of plating. Cells were typically used for electrophysiological experiments within 24 to 72 hours after plating.
For conventional whole-cell voltage clamp experiments cells were removed from the culture flask by brief trypsinization and re-plated at low density onto glass cover slips. Cover slips containing HEK cells expressing hSCN9A were placed in a bath on the stage of an inverted microscope and perfused (approximately 1 ml/minutes) with extracellular solution of the following composition: 138 mM NaCl, 2 mM CaCl2, 5.4 mM KCl, 1 mM MgCl2, 10 mM glucose, and 10 mM HEPES, pH 7.4, with NaOH. […] The osmolarity of the extracellular and intracellular solutions was 300 mOsm/kg and 295 mOsm/kg, respectively. All recordings were made at room temperature (22-24° C.) using AXOPATCH 200B amplifiers and PCLAMP software (Axon Instruments, Burlingame, Calif.). hSCN9A currents in HEK cells were measured using the whole-cell configuration of the patch-clamp technique (Hamill et al., 1981). Uncompensated series resistance was typically 2 to 5 mega ohms and >85% series resistance compensation was routinely achieved. […] Current records were acquired at 20 to 50 KHz and filtered at 5 to 10 KHz.
HEK cells stably transfected with hSCN9A were viewed under Hoffman contrast optics and placed in front of an array of flow pipes emitting either control or compound-containing extracellular solutions.
The voltage-dependence of inactivation was determined by applying a series of depolarizing prepulses (8 sec long in 10 mV increments) from a negative holding potential. The voltage was then immediately stepped to 0 mV to assess the magnitude of the sodium current. Currents elicited at 0 mV were plotted as a function of prepulse potential to allow estimation of the voltage at which 50% of the channels were inactivated (midpoint of inactivation or V1/2). Compounds were tested for their ability to inhibit hSCN9A sodium channels by activating the channel with a 20 msec voltage step […] to 0 mV following an 8 second conditioning prepulse to the empirically determined V1/2. Compound effect (% inhibition) was determined by difference in current amplitude before and after application of test compounds. For ease of comparison, “estimated IC-50” (EIC50) values were calculated from single point electrophysiology data by the following equation, (tested concentration, nM)×(100-% inhibition/% inhibition). Inhibition values <20% and >80% were excluded from the calculation.
Electrophysiological assays were conducted with PatchXpress 7000 hardware and associated software (Molecular Devices Corp). All assay buffers and solutions were identical to those used in conventional whole-cell voltage clamp experiments described above. hSCN9A cells were grown as above to 50%-80% confluency and harvested by trypsinization. Trypsinized cells were washed and resuspended in extracellular buffer at a concentration of 1×10^6 cells/ml. The onboard liquid handling facility of the PatchXpress was used for dispensing cells and application of test compounds.
As to `O=S(=O)(Nc1cscn1)c1cc(Cl)c(Oc2ccc(-c3cccc(C(F)(F)F)c3)cc2-c2ccnc(CNCCC3CCNCC3)c2)cc1F` [Example 2, 5-Chloro-2-fluoro-4-{[3-(2-{[(2-piperidin-4-ylethyl)amino]methyl}pyridin-4-yl)-3′-(trifluoromethyl)biphenyl-4-yl]oxy}-N-1,3-thiazol-4-ylbenzenesulfonamide], the inhibition at 0.03 µM was 10.7%.

The assay is the same for the next values; noted with them: estimated IC50 from single point electrophysiology data; PatchXpress platform; HEK cells expressing hSCN9A; clamped at V1/2 of inactivation; read-out: Nav1.7 EIC50.
`CC(=O)N1CCC(CCNCc2cc(-c3cc(-c4cccc(C(F)(F)F)c4)ccc3Oc3ccc(S(=O)(=O)Nc4ncns4)cc3C#N)ccn2)CC1` [Example 1, 4-({3-[2-({[2-(1-Acetylpiperidin-4-yl)ethyl]amino}methyl)pyridin-4-yl]-3′-(trifluoromethyl)biphenyl-4-yl}oxy)-3-cyano-N-1,2,4-thiadiazol-5-ylbenzenesulfonamide]: the IC50 was 5.8 nM.
For the compound `O=S(=O)(Nc1cscn1)c1cc(Cl)c(Oc2ccc(-c3cccc(C(F)(F)F)c3)cc2-c2ccnc(CNCCC3CCNCC3)c2)cc1F` [Example 2, 5-Chloro-2-fluoro-4-{[3-(2-{[(2-piperidin-4-ylethyl)amino]methyl}pyridin-4-yl)-3′-(trifluoromethyl)biphenyl-4-yl]oxy}-N-1,3-thiazol-4-ylbenzenesulfonamide], the IC50 was over 30 nM.
Take `N#Cc1cc(S(=O)(=O)Nc2ncns2)ccc1Oc1ccc(-c2ccccc2)cc1-c1cccc(C(=O)NCCN2CCNCC2)c1` [Example 3, 6′-{2-cyano-4-[(1,2,4-thiadiazol-5-ylamino)sulfonyl]phenoxy}-N-(2-piperazin-1-ylethyl)-1,1′:3′,1″-terphenyl-3-carboxamide]: the IC50 is 1 nM.
Take `N#Cc1cc(S(=O)(=O)Nc2ncns2)ccc1Oc1ccc(-c2ccccc2)cc1-c1cccc(CNCCC2CCNCC2)c1` [Example 5, 3-Cyano-4-[(3″-{[(2-piperidin-4-ylethyl)amino]methyl}-1,1′:3′,1″-terphenyl-4′-yl)oxy]-N-1,2,4-thiadiazol-5-ylbenzenesulfonamide sodium salt]: the IC50 was 1.5 nM.
As for `COCCOCCOCCOC(=O)NCc1cc(-c2cc(-c3cccc(C(F)(F)F)c3)ccc2Oc2ccc(S(=O)(=O)Nc3ncns3)cc2C#N)ccn1` [Example 8, 2-[2-(2-methoxyethoxy)ethoxy]ethyl [(4-{4-[2-cyano-4-(1,2,4-thiadiazol-5-ylsulfamoyl)phenoxy]-3′-(trifluoromethyl)biphenyl-3-yl}pyridin-2-yl)methyl]carbamate triethylammonium salt], the IC50 is 3.4 nM.
As to `COCCOCCOCCOCCNC(=O)NCc1cc(-c2cc(-c3cccc(C(F)(F)F)c3)ccc2Oc2ccc(S(=O)(=O)Nc3ncns3)cc2C#N)ccn1` [Example 9, 3-cyano-4-((3-(2-(3-oxo-7,10,13,16-tetraoxa-2,4-diazaheptadecyl)pyridin-4-yl)-3′-(trifluoromethyl)-[1,1′-biphenyl]-4-yl)oxy)-N-(1,2,4-thiadiazol-5-yl)benzenesulfonamide triethylammonium salt], the IC50 is 10.9 nM.
Turning to `COCCOCCOCCOCCNCCOCc1cc(-c2cc(-c3cccc(C(F)(F)F)c3)ccc2Oc2ccc(S(=O)(=O)Nc3ncns3)cc2C#N)ccn1` [Example 10, 4-((3-(2-(2,8,11,14,17-pentaoxa-5-azaoctadecyl)pyridin-4-yl)-3′-(trifluoromethyl)-[1,1′-biphenyl]-4-yl)oxy)-3-cyano-N-(1,2,4-thiadiazol-5-yl)benzenesulfonamide], the IC50 was 4.7 nM.
For `COCCOCCOCCOCCNC(=O)OCc1cc(-c2cc(-c3cccc(C(F)(F)F)c3)ccc2Oc2ccc(S(=O)(=O)Nc3ncns3)cc2C#N)ccn1` [Example 11, (4-(4-(4-(N-(1,2,4-thiadiazol-5-yl)sulfamoyl)-2-cyanophenoxy)-3′-(trifluoromethyl)-[1,1′-biphenyl]-3-yl)pyridin-2-yl)methyl (2,5,8,11-tetraoxatridecan-13-yl)carbamate], the IC50 is 10.4 nM.
Turning to `COCCOCCOCCOCCOCc1cc(-c2cc(-c3cccc(C(F)(F)F)c3)ccc2Oc2ccc(S(=O)(=O)Nc3ncns3)cc2C#N)ccn1` [Example 13, 3-cyano-4-({3-[2-(2,5,8,11,14-pentaoxapentadec-1-yl)pyridin-4-yl]-3′-(trifluoromethyl)biphenyl-4-yl}oxy)-N-(1,2,4-thiadiazol-5-yl)benzenesulfonamide], the IC50 was 13 nM.
As for `COCCOCCOCCOCCNC(=O)COCc1cc(-c2cc(-c3cccc(C(F)(F)F)c3)ccc2Oc2ccc(S(=O)(=O)Nc3ncns3)cc2C#N)ccn1` [Example 14, 2-((4-(4-(4-(N-(1,2,4-thiadiazol-5-yl)sulfamoyl)-2-cyanophenoxy)-3′-(trifluoromethyl)-[1,1′-biphenyl]-3-yl)pyridin-2-yl)methoxy)-N-(2,5,8,11-tetraoxatridecan-13-yl)acetamide], the IC50 is 5 nM.
Turning to `CC(=O)N1CCC(CCNCc2cccc(-c3cc(-c4ccccc4)ccc3Oc3ccc(S(=O)(=O)Nc4ncns4)cc3C#N)c2)CC1` [Example 16, 4-{[3″-({[2-(1-Acetylpiperidin-4-yl)ethyl]amino}methyl)-1,1′:3′,1″-terphenyl-4′-yl]oxy}-3-cyano-N-1,2,4-thiadiazol-5-ylbenzenesulfonamide], the IC50 is 0.9 nM.
For the compound `COCCOCCOCCOCCOC1CN(Cc2cc(-c3cc(-c4cccc(C(F)(F)F)c4)ccc3Oc3ccc(S(=O)(=O)Nc4ncns4)cc3C#N)ccn2)C1` [Example 20, hemi trifluoroacetate salt], the IC50 was 1 nM.
Same read-out and setting: the figure for `COCCOCCOCCOCCO[C@H]1CCN(Cc2cc(-c3cc(-c4cccc(C(F)(F)F)c4)ccc3Oc3ccc(S(=O)(=O)Nc4ncns4)cc3C#N)ccn2)C1` [Example 22, (S)-4-((3-(2-((3-((2,5,8,11-tetraoxatridecan-13-yl)oxy)pyrrolidin-1-yl)methyl)pyridin-4-yl)-3′-(trifluoromethyl)-[1,1′-biphenyl]-4-yl)oxy)-3-cyano-N-(1,2,4-thiadiazol-5-yl)benzenesulfonamide hemi-trifluoroacetate salt] is 2.6 nM; for `COCCOCCOCCOCCOC1CCN(Cc2cc(-c3cc(-c4cccc(C(F)(F)F)c4)ccc3Oc3ccc(S(=O)(=O)Nc4ncns4)cc3C#N)ccn2)CC1` [Example 23, 4-((3-(2-((4-((2,5,8,11-tetraoxatridecan-13-yl)oxy)piperidin-1-yl)methyl)pyridin-4-yl)-3′-(trifluoromethyl)-[1,1′-biphenyl]-4-yl)oxy)-3-cyano-N-(1,2,4-thiadiazol-5-yl)benzenesulfonamide trifluoroacetate salt] it is 5 nM; for `COCCOCCOCCOCCOCCOCCOCCOCCOCCOCCOCCOCCC(=O)N1CCN(c2cc(-c3cc(-c4ccc(C(F)(F)F)cc4)ccc3Oc3ccc(S(=O)(=O)Nc4ncns4)cc3C#N)ccn2)CC1` [Example 24, 4-((3-(2-(4-(2,5,8,11,14,17,20,23,26,29,32,35-dodecaoxaoctatriacontan-38-oyl)piperazin-1-yl)pyridin-4-yl)-4′-(trifluoromethyl)-[1,1′-biphenyl]-4-yl)oxy)-3-cyano-N-(1,2,4-thiadiazol-5-yl)benzenesulfonamide] it is 13.4 nM.
`COCCOCCOCCOCCOCCOCCOCCOCCOCCOCCOCCOCCC(=O)NCc1cc(-c2cc(-c3cccc(C(F)(F)F)c3)ccc2Oc2cc(F)c(S(=O)(=O)Nc3nncs3)cc2Cl)ccn1` [Example 27, N-[(4-{4-[2-chloro-5-fluoro-4-(1,3,4-thiadiazol-2-ylsulfamoyl)phenoxy]-3′-(trifluoromethyl)biphenyl-3-yl}pyridin-2-yl)methyl]-2,5,8,11,14,17,20,23,26,29,32,35-dodecaoxaoctatriacontan-38-amide]: the IC50 was 47.2 nM.
